Key:
[1] = target: T1, PPARγ (Homo sapiens, UniProt P37231); assay: LanthaScreen TR-FRET competitive binding assay with purified LBD; supported by luciferase transactivation (partial agonist, EC50 […])
T1 construct: gene PPARG
T1 sequence (P37231 231-505 limits assumed): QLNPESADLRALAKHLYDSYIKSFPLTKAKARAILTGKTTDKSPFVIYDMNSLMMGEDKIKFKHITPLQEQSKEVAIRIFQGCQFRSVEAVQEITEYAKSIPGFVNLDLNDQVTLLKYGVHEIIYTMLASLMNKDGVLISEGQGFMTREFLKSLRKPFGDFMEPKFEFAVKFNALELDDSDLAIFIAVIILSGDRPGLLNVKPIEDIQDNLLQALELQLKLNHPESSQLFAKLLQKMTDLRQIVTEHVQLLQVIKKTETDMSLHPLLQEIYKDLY

[2] = target: T2, PPARα (Homo sapiens, UniProt Q07869); assay: LBD binding (data not shown), three to four-fold higher concentrations than for PPARγ
T2 construct: gene PPARA; LBD
T2 sequence (Q07869 196-468 limits assumed): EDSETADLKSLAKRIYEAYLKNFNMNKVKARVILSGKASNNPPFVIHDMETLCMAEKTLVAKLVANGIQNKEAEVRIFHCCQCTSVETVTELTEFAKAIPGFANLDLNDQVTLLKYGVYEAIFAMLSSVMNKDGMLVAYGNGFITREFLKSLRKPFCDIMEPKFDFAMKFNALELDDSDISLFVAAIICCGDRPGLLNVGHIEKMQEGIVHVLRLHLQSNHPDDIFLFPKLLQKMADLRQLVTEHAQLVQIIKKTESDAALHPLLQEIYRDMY

[3] = target: T3, PPARβ/δ (Homo sapiens, UniProt Q03181); assay: as above
T3 construct: gene PPARD; LBD
T3 sequence (Q03181 171-441 limits assumed): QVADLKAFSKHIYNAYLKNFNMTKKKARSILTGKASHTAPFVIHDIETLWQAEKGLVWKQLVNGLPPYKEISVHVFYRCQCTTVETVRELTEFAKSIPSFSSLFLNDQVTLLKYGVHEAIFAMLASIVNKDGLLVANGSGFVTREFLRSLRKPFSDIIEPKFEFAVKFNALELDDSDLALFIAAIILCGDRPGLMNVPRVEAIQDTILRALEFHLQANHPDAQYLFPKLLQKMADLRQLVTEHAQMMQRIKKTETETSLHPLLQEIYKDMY

For `C=CCc1ccc(O)c(-c2ccc(O)c(CC=C)c2)c1` [honokiol], the Ki [1] was 22.9 µM, the “LBD binding (data not shown), three to four-fold higher concentrations than for” value [2] was “Honokiol also bound to the LBDs of PPARα and PPARβ/δ but only at considerably (three to four-fold) higher concentrations” and the “LBD binding (data not shown), three to four-fold higher concentrations than for” value [3] was “Honokiol also bound to the LBDs of PPARα and PPARβ/δ but only at considerably (three to four-fold) higher concentrations”.
